Assay results from ChEMBL document CHEMBL1201862, “PubChem BioAssay data set” (2004).
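Cells were grown in 96-well plates and exposed to each compound for 48 hours at five concentrations; endpoints were interpolated linearly between bracketing concentrations, or set to the highest concentration if not reached. GI50 = concentration required for 50% inhibition of growth.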 Activity calls are given as the source filed them. Rule as the data show it: active = GI50 up to about 1.1 µM and inactive = higher.

Key:
Assay in all cases: NCI tumour cell line growth inhibition, 48 h
DLD-1 = tested on: DLD-1
M19-MEL = tested on: M19-MEL
DMS-114 = tested on: DMS-114
LXFL 529 = tested on: LXFL 529
DMS-273 = tested on: DMS-273
KM-20L2 = tested on: KM-20L2
SNB-78 = tested on: SNB-78
XF498 = tested on: XF498
RXF 631 = tested on: RXF 631

SMILES | GI50 (DLD-1) | GI50 (M19-MEL) | GI50 (DMS-114) | GI50 (LXFL 529) | GI50 (DMS-273) | GI50 (KM-20L2) | GI50 (SNB-78) | GI50 (XF498) | GI50 (RXF 631)
COc1ccc(NC(=O)C(=O)Cc2nc3ccc([N+](=O)[O-])cc3nc2O)c(OC)c1 | > 100 µM (inactive) | > 100 µM (inactive) | > 100 µM (inactive) | > 100 µM (inactive) | > 100 µM (inactive) | > 100 µM (inactive) |  |  | 
O=c1c2ccccc2sc2nc(CCl)nn12 | 6.81 µM (inactive) | 19.7 µM (inactive) | 17.6 µM (inactive) | 19.5 µM (inactive) | 8.18 µM (inactive) | 14.5 µM (inactive) | > 68.4 µM (inactive) |  | 
COc1cccc2c1C(=O)c1c(O)c3c(c(O)c1C2=O)C[C@@](O)(C(C)=O)C[C@@H]3OC1CC(N(C)C)C(O)C(C)O1 (some centres undefined) | 0.0153 µM (active) | 0.0213 µM (active) | 0.0475 µM (active) | 0.00684 µM (active) | 0.00964 µM (active) | 0.00603 µM (active) | 0.00873 µM (active) | 0.0001 µM (active) | 
Cn1ccnc1CCc1ccc(Cl)c(Cl)c1 | > 100 µM (inactive) | > 100 µM (inactive) | 67.5 µM (inactive) | > 100 µM (inactive) | > 100 µM (inactive) | > 100 µM (inactive) | > 100 µM (inactive) |  | 
N#CCCN(CCC#N)c1ccc(C(=O)NN)cc1 | > 100 µM (inactive) | > 100 µM (inactive) | > 100 µM (inactive) | > 100 µM (inactive) | > 100 µM (inactive) | > 100 µM (inactive) | > 100 µM (inactive) | > 100 µM (inactive) | > 100 µM (inactive)
CN[C@@H](C)[C@H](NC)c1ccccc1 | > 100 µM (inactive) | > 100 µM (inactive) | > 100 µM (inactive) | > 100 µM (inactive) | > 100 µM (inactive) |  | > 100 µM (inactive) |  | > 100 µM (inactive)
CCCCCCCCCCCC(=O)OC(COC(N)=O)COc1ccc(Cl)cc1 (centres undefined) | 38 µM (inactive) | 18.6 µM (inactive) | 17.3 µM (inactive) | 20.8 µM (inactive) | 20.9 µM (inactive) | 37.8 µM (inactive) | 24.3 µM (inactive) | 21.4 µM (inactive) | 26.2 µM (inactive)
CC(C)(C)N1CC1CNC(=O)C(=O)NCC1CN1C(C)(C)C (centres undefined) | 0.556 µM (active) | 1.26 µM (inactive) | 0.603 µM (active) |  |  | 1.65 µM (inactive) |  | 0.526 µM (active) | 
CCCCCCCCCCCC(=O)OCC1OC(n2cc(F)c(=O)[nH]c2=O)C(NC(=O)OCc2ccccc2)C(OC(=O)CCCCCCCCCCC)C1O (centres undefined) | > 100 µM (inactive) | > 100 µM (inactive) | > 100 µM (inactive) | > 100 µM (inactive) | > 100 µM (inactive) | > 100 µM (inactive) | > 100 µM (inactive) | > 100 µM (inactive) | > 100 µM (inactive)
COc1cc([C@@H]2c3cc4c(c(O)c3C[C@H]3COC(=O)[C@@H]32)OCO4)cc(OC)c1OC [BETA-PELTATIN A] | 0.015 µM (active) | 0.0548 µM (active) | 0.015 µM (active) |  | 0.015 µM (active) |  | 0.015 µM (active) | 0.015 µM (active) | 
CCc1cccc(C)c1NC(=O)CC(=O)NNC(N)=S | > 100 µM (inactive) |  | > 100 µM (inactive) | > 100 µM (inactive) | > 100 µM (inactive) | > 100 µM (inactive) | > 100 µM (inactive) | > 100 µM (inactive) | 
COc1ccc2cc(C(=O)c3ccccc3C(=O)O)ccc2c1 | > 100 µM (inactive) | > 100 µM (inactive) | > 100 µM (inactive) | > 100 µM (inactive) | > 100 µM (inactive) | > 100 µM (inactive) |  |  | 
CC(=O)NC1C(=O)CC(c2ccccc2)N(C)C1c1ccccc1 (centres undefined) | > 100 µM (inactive) | > 100 µM (inactive) | > 100 µM (inactive) | > 100 µM (inactive) | > 100 µM (inactive) | > 100 µM (inactive) | > 100 µM (inactive) |  | > 100 µM (inactive)
COc1ccc([Se]c2ccc(OC)cc2)cc1 | > 100 µM (inactive) | 69.7 µM (inactive) | 29.1 µM (inactive) |  | 92.5 µM (inactive) | 65.2 µM (inactive) |  | > 100 µM (inactive) | 
O=C(O)c1ccccc1NC(=O)C1CCCCC1 | > 100 µM (inactive) | > 100 µM (inactive) | > 100 µM (inactive) | > 100 µM (inactive) | > 100 µM (inactive) | > 100 µM (inactive) | > 100 µM (inactive) | > 100 µM (inactive) | > 100 µM (inactive)
COc1ccc(NC(=O)CSc2nnc(-c3ccc(/N=C\c4ccc(Cl)cc4)cc3)o2)cc1 |  | 15 µM (inactive) | 15.2 µM (inactive) | 16.5 µM (inactive) | 26.8 µM (inactive) | 39.6 µM (inactive) | 24.9 µM (inactive) | 17.1 µM (inactive) | 
Cc1cccc(C(C)(C)C)c1NC(=O)C(=O)C(C(=O)/C=C\c1ccccc1)C1OC(=O)c2ccccc21 (centres undefined) | > 100 µM (inactive) | > 100 µM (inactive) | > 100 µM (inactive) | > 100 µM (inactive) |  | > 100 µM (inactive) | > 100 µM (inactive) | > 100 µM (inactive) | > 100 µM (inactive)
C1=C2/CC[C@H](Sc3ccccc3)C2C2(CCCCC/1)OCCO2 (some centres undefined) | 33 µM (inactive) | 15.6 µM (inactive) |  |  | 25.4 µM (inactive) | 18.2 µM (inactive) | 39.4 µM (inactive) | 22.7 µM (inactive) | 
C[C@@H]1OC2(O)[C@H]3CCCN3S(=O)(=O)CCN2C1=O (some centres undefined) | > 100 µM (inactive) | > 100 µM (inactive) |  | > 100 µM (inactive) |  | > 100 µM (inactive) | > 100 µM (inactive) | 0.0306 µM (active) | > 100 µM (inactive)
CN(C)c1ccc(/C=C2\CNC/C(=C\c3ccc(N(C)C)cc3)C2=O)cc1 | 18.9 µM (inactive) | 18.4 µM (inactive) | 18.8 µM (inactive) | 37.4 µM (inactive) | 12.7 µM (inactive) | 30.1 µM (inactive) | > 100 µM (inactive) | 16.4 µM (inactive) | 21.7 µM (inactive)
CCN(CC)CCSc1c2ccccc2nc2cc(NCC(=O)Nc3ccccc3-c3ccccc3NC(=O)CNc3ccc4c(SCCN(CC)CC)c5ccccc5nc4c3)ccc12 | > 100 µM (inactive) | 23 µM (inactive) |  | > 91 µM (inactive) | > 34.7 µM (inactive) | > 100 µM (inactive) |  | > 100 µM (inactive) | > 100 µM (inactive)
CCCCCCCCCCCCCCCCCC(=O)Nc1ccn(C2OC(CO)C(O)C2O)c(=O)n1 (centres undefined) | > 100 µM (inactive) | 5.69 µM (inactive) |  | > 100 µM (inactive) | 14.3 µM (inactive) | 32.1 µM (inactive) | > 100 µM (inactive) |  | 
